Several values for one entry are separate records, joined by “and”; a condition that tells them apart may be missing. Equal entries are not always repeated.
Key:
Rat CYP2B1 [1] = molecular target: T1, Rat CYP2B1 (Rattus norvegicus, UniProt P00176); details: for Depletion of OH-PCB after 60 min: rat CYP2B1, OH-PCB as substrate; for EF of OH-PCB substrate after biotransformation: rat CYP2B1, racemic OH-PCB as substrate; for Average EF of 5-OH-PCB metabolite: formed from parent PCB by rat CYP2B1, 60 min, two enantioselective columns; for Biotransformation activity of atropisomer compared with antipode: Fig. 1A1; for Formation of 4,5-DiOH-PCB from PCB: Fig. 1B1; for 4-OH-PCB metabolites detected by GC-ECD: not confirmed by GC-MS; for Depletion of PCB after 60 min incubation: rat CYP2B1, 1000 ng/mL PCB
T1 sequence (P00176 1-491): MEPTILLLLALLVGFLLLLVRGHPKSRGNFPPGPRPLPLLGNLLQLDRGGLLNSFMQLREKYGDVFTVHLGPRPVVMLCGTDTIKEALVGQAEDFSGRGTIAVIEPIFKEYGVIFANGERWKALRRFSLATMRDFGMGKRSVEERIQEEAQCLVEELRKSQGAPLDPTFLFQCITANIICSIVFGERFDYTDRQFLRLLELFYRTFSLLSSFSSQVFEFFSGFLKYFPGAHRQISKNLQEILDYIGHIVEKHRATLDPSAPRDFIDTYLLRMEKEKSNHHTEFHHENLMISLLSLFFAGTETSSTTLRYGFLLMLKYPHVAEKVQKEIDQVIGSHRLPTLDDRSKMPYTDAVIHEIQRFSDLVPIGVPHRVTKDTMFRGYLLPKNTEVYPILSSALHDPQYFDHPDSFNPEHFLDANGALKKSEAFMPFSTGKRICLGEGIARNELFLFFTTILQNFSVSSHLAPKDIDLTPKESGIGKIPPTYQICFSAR

Rat CYP2B1 [2] = molecular target: T1, Rat CYP2B1; format: in vitro ADME; details: for Formation of metabolite with increases in initial (+)-PCB 136 concentration: 500 ng (−)-PCB 136 as major substrate
[3] = cited from earlier work; for EF of OH-PCB 95 in the liver: female C57Bl/6 mice
rat liver microsomes = details: cited from earlier work
[4] = Sprague-Dawley rats, intraperitoneal injection of PCB 136; cited from earlier work
[5] = cited from earlier work

## Oc1c(O)c(Cl)c(-c2cc(Cl)ccc2Cl)c(Cl)c1Cl [4,5-95, 3,4-dihydroxy −2,2',5,5',6-pentachlorobiphenyl]
Rat CYP2B1 [1]; rat CYP2B1, 4-95 incubation, 60 min
  EF of 4,5-95 formed: 0.53

## Oc1c(O)c(Cl)c(-c2c(Cl)ccc(Cl)c2Cl)c(Cl)c1Cl [4,5-136, 3,4-dihydroxy −2,2',3',5,6,6'-hexachlorobiphenyl]
Rat CYP2B1 [2]; 60 min
  Formation of metabolite with increases in initial (+)-PCB 136 concentration: significantly decreased

## Oc1cc(Cl)c(-c2cc(Cl)ccc2Cl)c(Cl)c1Cl [4-95, 2,2',3,5',6-pentachlorobiphenyl-4-ol]
Rat CYP2B1 [1]; 60 min
  Depletion of OH-PCB after 60 min: 40%
  EF of OH-PCB substrate after biotransformation: 0.62
[3]
  EF of OH-PCB 95 in the liver: about 0.20

## Oc1cc(Cl)c(-c2c(Cl)ccc(Cl)c2Cl)c(Cl)c1Cl [4-136, 2,2',3,3',6,6'-hexachlorobiphenyl-4-ol]
Rat CYP2B1 [2]; 500 ng (+)-PCB 136 as major substrate, 60 min
  Formation of metabolite with increases in initial (−)-PCB 136 concentration: significant increase
Rat CYP2B1 [2]; 60 min
  Formation of metabolite with increases in initial (+)-PCB 136 concentration: significantly decreased

## Oc1cc(Cl)c(Cl)c(-c2ccc(Cl)cc2Cl)c1Cl [5-91, 2,2',3,4',6-pentachlorobiphenyl-5-ol]
Rat CYP2B1 [1]
  Average EF of 5-OH-PCB metabolite: 0.17
Rat liver microsomes
  EF of 5-OH-PCB from incubation of parent PCB with rat liver microsomes: 0.54

## Oc1cc(Cl)c(Cl)c(-c2cc(Cl)ccc2Cl)c1Cl [5-95, 2,2',3,5',6-pentachlorobiphenyl-5-ol]
Rat CYP2B1 [1]
  Average EF of 5-OH-PCB metabolite: 0.20 and ~ 0.20
Rat CYP2B1 [1]; rat CYP2B1, 60 min, Fig. 2A1
  Biotransformation activity of 5-95 compared with 4-95: significantly greater biotransformation activity
Rat CYP2B1 [1]; 60 min
  Depletion of OH-PCB after 60 min: 64%
  EF of OH-PCB substrate after biotransformation: 0.46
[3]
  EF of OH-PCB 95 in the liver: ~0.65
Rat liver microsomes
  EF of 5-OH-PCB from incubation of parent PCB with rat liver microsomes: 0.36

## Oc1cc(Cl)c(Cl)c(-c2c(Cl)ccc(Cl)c2Cl)c1Cl [5-136, 2,2',3,3',6,6'-hexachlorobiphenyl-5-ol]
Rat CYP2B1 [2]; 60 min
  Formation of metabolite with increases in initial (+)-PCB 136 concentration: not influenced
Rat CYP2B1 [1]
  Average EF of 5-OH-PCB metabolite: 0.77
[4]
  EF of 5-136 in livers: ≈ 0.4
Rat liver microsomes
  EF of 5-OH-PCB from incubation of parent PCB with rat liver microsomes: 0.70

## Oc1cc(Cl)c(Cl)c(-c2cc(Cl)c(Cl)cc2Cl)c1Cl [5-149, 2,2',4',5,5',6-hexachlorobiphenyl-3-ol]
Rat CYP2B1 [1]
  Average EF of 5-OH-PCB metabolite: 0.41
Rat liver microsomes
  EF of 5-OH-PCB from incubation of parent PCB with rat liver microsomes: 0.66

## Oc1cc(Cl)c(Cl)c(-c2ccc(Cl)c(Cl)c2Cl)c1Cl [5’-132, 2,2',3,3',4',6-hexachlorobiphenyl-5-ol]
Rat CYP2B1 [1]
  Average EF of 5-OH-PCB metabolite: 0.85
Rat liver microsomes
  EF of 5-OH-PCB from incubation of parent PCB with rat liver microsomes: 0.30

## Clc1ccc(Cl)c(-c2c(Cl)ccc(Cl)c2Cl)c1Cl [(+)-PCB 136]
Rat CYP2B1 [2]; 500 ng (+)-PCB 136, 0-500 ng/mL (−)-PCB 136, 60 min
  Biotransformation activity of (+)-PCB 136 in the presence of (−)-PCB 136: not significantly affected
Rat CYP2B1 [1]; rat CYP2B1, 60 min
  Biotransformation activity of atropisomer compared with antipode: significantly higher than their respective antipodes

## Clc1ccc(-c2c(Cl)ccc(Cl)c2Cl)c(Cl)c1Cl [(−)-132]
Rat CYP2B1 [1]; rat CYP2B1, 60 min
  Biotransformation activity of atropisomer compared with antipode: significantly higher than their respective antipodes

## Clc1ccc(Cl)c(-c2c(Cl)ccc(Cl)c2Cl)c1Cl [(−)-PCB 136]
Rat CYP2B1 [2]; pure (−)-PCB 136 incubations, Fig. 4A2
  5-136 atropisomer formed in pure atropisomer incubation: E1-5-136 was the only metabolite

## Clc1ccc(-c2c(Cl)ccc(Cl)c2Cl)c(Cl)c1 [E1-91]
Rat CYP2B1 [1]; rat CYP2B1, 60 min
  Biotransformation activity of atropisomer compared with antipode: significantly higher than their respective antipodes

## Clc1ccc(Cl)c(-c2c(Cl)ccc(Cl)c2Cl)c1 [E2-95]
Rat CYP2B1 [1]; rat CYP2B1, 60 min
  Biotransformation activity of atropisomer compared with antipode: significantly higher than their respective antipodes

## Clc1ccc(-c2c(Cl)ccc(Cl)c2Cl)c(Cl)c1 [PCB 91, 2,2',3,4',6-pentachlorobiphenyl]
Rat CYP2B1 [1]; rat CYP2B1, 60 min
  Formation of 4,5-DiOH-PCB from PCB: minor metabolites
  4-OH-PCB metabolites detected by GC-ECD: minor products
Rat liver microsomes
  Yield of 5-OH-PCB metabolite in rat liver microsomal studies: 20%

## Clc1ccc(Cl)c(-c2c(Cl)ccc(Cl)c2Cl)c1 [PCB 95, 2,2',3,5',6-pentachlorobiphenyl]
Rat CYP2B1 [1]; rat CYP2B1, 60 min
  4-OH-PCB metabolites detected by GC-ECD: minor products
[5]
  EF of PCB in vivo in rats: > 0.5
Rat liver microsomes
  Yield of 5-OH-PCB metabolite in rat liver microsomal studies: 8.8%

## Clc1ccc(-c2c(Cl)ccc(Cl)c2Cl)c(Cl)c1Cl [PCB 132, 2,2',3,3',4,6'-hexachlorobiphenyl]
Rat CYP2B1 [1]; 60 min
  Depletion of PCB after 60 min incubation: 11%
Rat liver microsomes
  Yield of 5-OH-PCB metabolite in rat liver microsomal studies: 16%

## Clc1ccc(Cl)c(-c2c(Cl)ccc(Cl)c2Cl)c1Cl [PCB 136, 2,2',3,3',6,6'-hexachlorobiphenyl]
Rat CYP2B1 [1]; 60 min
  Depletion of PCB after 60 min incubation: 21%
Rat CYP2B1 [1]; rat CYP2B1, 60 min
  Formation of 4,5-DiOH-PCB from PCB: minor metabolites
  4-OH-PCB metabolites detected by GC-ECD: minor products
[3]; C57Bl/6 female mice tissues, oral administration
  EF of PCB in mice tissues after oral administration: ~0.7
Rat liver microsomes; 30 min
  EF of PCB after 30 min microsomal incubation: 0.40
Rat liver microsomes
  Yield of 5-OH-PCB metabolite in rat liver microsomal studies: 22%

## Clc1cc(Cl)c(-c2c(Cl)ccc(Cl)c2Cl)cc1Cl [PCB 149, 2,2',3,4',5',6-hexachlorobiphenyl]
Rat CYP2B1 [1]; 60 min
  Depletion of PCB after 60 min incubation: 4%
Rat CYP2B1 [1]; rat CYP2B1, 60 min
  Stereoselectivity of biotransformation: no apparent stereoselectivity
Rat liver microsomes; 30 min
  EF of PCB 149 after 30 min biotransformation by rat liver microsomes: 0.46
Rat liver microsomes
  Yield of 5-OH-PCB metabolite in rat liver microsomal studies: 2.6%

Reference: paper PMC3870094 (Environmental science & technology, 2013)
